# Measured values published in US20110053777A1, “Resistance to Acetolactate Synthase-Inhibiting Herbicides” (priority 2006, published 2011).
# Assays:
# [1] = test system: ALS enzyme from the resistant C. tinctoria mutants; assay: ALS enzyme assay, C. tinctoria mutant versus susceptible; type: biochemical
# Source text: (§1) ALS enzyme Assay: An ALS enzyme assay was used to determine if resistance in the mutants was due to the ALS enzyme itself in the mutant plants. A modification was used of the colorimetric method of Singh B. K., Stidham M. A., and Shaner D. L. 1988. Assay of acetohydroxyacid synthase. Analytical Biochemistry 171:173-179. Rice plants were used as controls. Sulfometuron methyl (Oust), chlorsulfuron (Glean), and imazapyr (Arsenal) were used as ALS inhibitors. Briefly, 10 grams of young leaves pooled from either mutant plants or from susceptible plants were ground to a powder in liquid nitrogen, and mixed with 50 ml of extraction buffer containing 100 mM K2HPO4 (pH 7.5), 10 mM sodium pyruvate, 5 mM EDTA, 1 mM valine, 1 mM leucine, 10 mM cysteine, 0.1 mM flavin adenine dinucleotide, 5 mM MgCl2, 10% (v/v) glycerol, and 1% (w/v) polyvinylpyrrolidone. The homogenate was filtered through eight layers of cheesecloth and centrifuged at 25,000 g at 4° C. for 20 min. The supernatant was brought to 50% saturation with (NH4)2SO4 by adding an equal volume of 100% saturated extraction buffer, and was then allowed to stand for 20-30 min on ice. The resulting solution was centrifuged at 25,000 g at 4° C. for another 20 min. The pellet was dissolved in 10 ml resuspension buffer containing 100 mM K2HPO4 (pH7.5), 1 mM EDTA, 100 mM NaCl, and 10% (v/v) glycerol. Bradford Reagent (SIGMA, Saint Louis, Mo., USA) was used to determine the concentration of total protein in solution; and resuspension buffer was used to adjust the concentrations of total protein from wild- and mutant-type of C. tinctoria to the same level.
# (§2) ALS activity was measured by mixing 1.5 ml of assay buffer, containing 100 mM K2HPO4 (pH 7.0), 10 mM MgCl2, 100 mM sodium pyruvate, 1 mM thiamine pyrophosphate, 0.1 mM flavin adenine dinucleotide, and 0.5 mL of the ALS extract, with varying amounts of herbicide (0.0.1, 1, 10, 100, 1000 μM). The mixture was then incubated at 37° C. for 1 h. […] The mixtures were then centrifuged at 12,000 g for 10 min, and absorbance was measured at 530 nm with a Spectrophotometer 690.
# [2] = target: T1, AHAS enzyme from CL161 rice (Oryza sativa subsp. japonica, UniProt Q6K2E8, S627N); assay: ALS enzyme assay, CL161 rice versus CCDR rice; type: biochemical
# T1 construct: from tissue; host or cells: leaves of CL161 rice plants; crude ammonium sulfate fraction
# Source text: as §1, §2
# [3] = test system: C. tinctoria ALS allele with mutations at both Pro197 and Trp574; assay: Herbicide resistance imparted by the double-mutant ALS allele; set-up: species or system Coreopsis tinctoria; conditions: for Resistance of the clone with mutations at both Pro197 and Trp574: resistant clone with both mutations; for Pre-emergence and/or post-emergence resistance to herbicide: novel allele with two point mutations
# [4] = test system: susceptible transplants from Idlewild; assay: Transplanting trial, susceptible transplants; type: in vivo, Coreopsis tinctoria; conditions: applied 2 weeks after transplant, ratings 2 and 4 weeks after application
# Procedure: A transplanting trial was also conducted in May at the Idlewild Research Station. Five-inch diameter divots of plants were collected at both the Chase and Idlewild sites. Divots were transplanted to a location at Idlewild which had had no previous Coreopsis crop. Divots were transplanted in a paired arrangement on 36 inch centers. Oust, Plateau and Outrider were applied at various rates 2 weeks after transplant. The trial used a randomized complete block design with 3 replications. Visual injury and height ratings were taken 2 and 4 weeks after application. Injury to the susceptible transplants from Idlewild ranged from a high of 100% at all rates of Oust to a low of 60% with the 0.06 pound ai/A rate of Outrider. No injury was observed, nor any height differences noted in any application made to the resistant transplants from the Chase site.
# susceptible Coreopsis = assay: Field trial of ALS-inhibiting herbicides on F1 plants, commercial control seed; type: in vivo, Coreopsis tinctoria; conditions: Oust applied at 0.07 pounds ai/A, ratings taken at 23 and 49 days after application
# Procedure: To confirm herbicide resistance, and to characterize herbicide resistance profiles, seeds from the roadside-harvested, putatively-resistant Coreopsis were harvested (F0) and planted in a field in a separate location from the original roadside stand. The resulting F0 plants were not subjected to herbicide treatment. F1 seeds were harvested from the F0 plants, and the F1 seeds were planted in a field in several blocks and replicates. The resulting F1 plants were treated with various AHAS-inhibiting herbicides.
# Commercial Coreopsis tinctoria seed were obtained as controls from two commercial nurseries. The commercially-obtained seed and the experimental seed were planted with a small grain drill at a seeding rate of 2 pounds per acre. Three months later, herbicides were applied to the F1 plants at different rates in a randomized complete block design with three replications. The ALS-inhibiting herbicides used in this trial were sulfometuron methyl (trade name Oust™); imazapic (trade name Plateau™); sulfosulfuron, 1-(2-ethylsulfonylimidazo[1,2a]pyridin-3-ylsulfonyl)-3-(4,6-dimethoxypyrimidin-2-yl) urea (trade name Outrider™); and DPX 6447.
# Percent injury ratings were taken at 23 and 49 days after herbicide application. All herbicide treatments injured the susceptible Coreopsis. […]
# [5] = test system: Idlewild-grown control seed (herbicide-sensitive Coreopsis); assay: Field planting sprayed with Oust, Idlewild-grown control seed; type: in vivo, Coreopsis tinctoria; conditions: single application of Oust at 0.07 pounds ai/A
# Source text: (§3) Seed were harvested from mature Coreopsis with a combine from plantings both inside and outside the herbicide treated areas at the Idlewild Research Station in Clinton, La. Seed were also harvested with a combine from the roadside area near Chase, La. Putative herbicide-resistant seed from the Chase location, and putative herbicide-sensitive seed from the Idlewild Research Station were separately cleaned and stored in a climate-controlled seed storage facility.
# (§4) Seed samples from both seed sources were planted in March at the Idlewild Research Station using a small grain drill, at a 2 pound per acre seeding rate. Area one contained both control seed grown the previous season at the Idlewild Research Station, and seed obtained from the Chase, La. site. A second area was planted in March exclusively with seed from Chase, La. A third area was planted in April with seed from Chase, La.
# (§5) A single application of Oust at 0.07 pounds ai/A was applied in mid-May to half of the first and third plantings and to all of the second planting.
# [6] = test system: seed from Chase (herbicide-resistant Coreopsis); assay: Field planting sprayed with Oust, seed from Chase; type: in vivo, Coreopsis tinctoria
# Source text: as §3, §4, §5
# [7] = test system: susceptible C. tinctoria plants; assay: Greenhouse herbicide spray test, susceptible plants; type: in vivo; conditions: SM 8 oz. a.i./A, IM 2 oz. a.i./A
# Procedure: (§6) Response of resistant and susceptible C. tinctoria to imidazolinone and sulfonylurea herbicides treatments: Both wild-type and mutant strains of C. tinctoria were planted in the greenhouse with ˜100 seeds per pot. Individual plants were transplanted to separate pots after seven weeks. The greenhouse regime comprised natural light with temperatures of 25 to 30° C. during the day and 15 to 20° C. at night. The experimental setup was a completely randomized design with five treatments and six plants (replications) per treatment for both wild-type and mutant strains. The five treatments were Arsenal (imazapyr), Oust (sulfometuron methyl), Arsenal+Oust sequential, Oust+Arsenal sequential, and control (no herbicide). […] to individual mutant or susceptible, […], with 12 plants per each herbicide treatment for both wild-type and mutants. Ten days later, the same rate of Oust was sprayed on six plants that had previously been treated with Arsenal, and the same rate of Arsenal was sprayed on six plants that had previously been treated with Oust, for both wild-type and mutants. […]
# The range of herbicide injury ratings for the sprayed susceptible plants was 3.3 to 4.8, with essentially no injury for the unsprayed controls.
# [8] = test system: resistant C. tinctoria plants; assay: Greenhouse herbicide spray test, resistant plants; type: in vivo
# Procedure: as §6
# Plant height in resistant plants was not affected when sprayed with […] or imazapyr, as compared to the unsprayed resistant controls. […] It appeared that the imazapyr+sulfosulfuron methyl treatment stimulated growth in the resistant plants, an observation that will be confirmed in follow-up experiments. Various strains or genotypes of C. tinctoria were used in this study, so a direct evaluation of herbicide on plant height should be viewed with caution. […] Herbicide injury ratings for the resistant plants ranged from 0.5 to 1.2 (Table 2).
# [9] = sequential sprays March 3 and March 13, 25 days after treatment
# [10] = SM 8 oz. a.i./A, IM 2 oz. a.i./A, sequential sprays March 3 and March 13
# T1 sequence (Q6K2E8 44-644 S627N): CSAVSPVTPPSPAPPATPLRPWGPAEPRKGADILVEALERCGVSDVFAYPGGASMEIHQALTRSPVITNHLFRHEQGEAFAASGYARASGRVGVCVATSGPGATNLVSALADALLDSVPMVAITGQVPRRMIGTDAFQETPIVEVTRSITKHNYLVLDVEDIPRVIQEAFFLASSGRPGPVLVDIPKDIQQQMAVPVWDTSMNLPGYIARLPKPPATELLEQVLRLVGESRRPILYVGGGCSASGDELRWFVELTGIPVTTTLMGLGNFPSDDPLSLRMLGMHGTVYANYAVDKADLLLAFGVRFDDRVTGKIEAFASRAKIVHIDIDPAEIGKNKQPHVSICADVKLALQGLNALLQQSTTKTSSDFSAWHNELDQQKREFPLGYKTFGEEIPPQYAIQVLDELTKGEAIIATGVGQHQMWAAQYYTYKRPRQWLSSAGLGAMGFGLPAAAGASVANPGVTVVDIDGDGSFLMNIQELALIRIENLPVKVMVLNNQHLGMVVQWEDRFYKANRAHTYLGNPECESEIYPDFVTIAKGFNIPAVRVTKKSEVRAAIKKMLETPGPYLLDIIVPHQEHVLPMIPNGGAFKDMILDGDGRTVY
compound,measurement,setting,value
"COc1nc(C)nc(NC(=O)NS(=O)(=O)c2ccccc2Cl)n1 [Glean, 2-chloro-N-[(4-methoxy-6-methyl-1,3,5-triazin-2-yl)aminocarbonyl]benzenesulfonamide]",Tolerance of mutant AHAS compared to susceptible control,"[1]; Glean at 1 to 10 μM, FIG. 1c",~4.5 fold
same,Tolerance of CL161 rice AHAS compared to control,"[2]; Glean at 1 μM, FIG. 1d",< 1 fold
same,Resistance of the clone with mutations at both Pro197 and Trp574,[3],strong resistance
"COc1nc(C)nc(NC(=O)NS(=O)(=O)c2ccccc2OCCCl)n1 [triasulfuron, 3-(6-methoxy-4-methyl-1,3,5-triazin-2-yl)-1-[2-(2-chloroethoxy)-phenylsulfonyl]-urea]",Pre-emergence and/or post-emergence resistance to herbicide,[3],Resistance has been demonstrated
"Cc1cnc(C2=NC(C)(C(C)C)C(=O)N2)c(C(=O)O)c1 (racemic) [imazapic, (±)-2-[4,5-dihydro-4-methyl-4-(1-methyl-ethyl)-5-oxo-1H-imidazol-2-yl]-5-methyl-3-pyridinecarboxylic acid]",Pre-emergence and/or post-emergence resistance to herbicide,[3],Resistance has been demonstrated
"COC(=O)c1ccccc1S(=O)(=O)NC(=O)Nc1nc(C)nc(OC)n1 [metsulfuron methyl, methyl 2-[[[[(4-methoxy-6-methyl-1,3,5-triazin-2-yl)amino]carbonyl]amino]sulfonyl]benzoate]",Pre-emergence and/or post-emergence resistance to herbicide,[3],Resistance has been demonstrated
"CCS(=O)(=O)c1nc2ccccn2c1S(=O)(=O)NC(=O)Nc1nc(OC)cc(OC)n1 [Outrider, 1-(2-ethylsulfonylimidazo[1,2a]pyridin-3-ylsulfonyl)-3-(4,6-dimethoxypyrimidin-2-yl) urea]",Visual injury,[4]; 0.06 pound ai/A rate of Outrider,60%
same,Pre-emergence and/or post-emergence resistance to herbicide,[3],Resistance has been demonstrated
COc1cc(OC)nc(NC(=O)NS(=O)(=O)c2ncccc2C(F)(F)F)n1 [flazasulfuron],Pre-emergence and/or post-emergence resistance to herbicide,[3],Resistance has been demonstrated
"COC(=O)c1ccccc1S(=O)(=O)NC(=O)Nc1nc(C)cc(C)n1 [Oust, 2-[[[[(4,6-dimethyl-2-pyrimidinyl)amino]carbonyl]amino]sulfonyl]benzoic acid methyl ester]",Percent injury rating,susceptible Coreopsis,98%
same,injury rate,[5],98%
same,effect of second application,[6]; second application of Oust at 0.14 pounds ai/A,no noticeable effect
same,injury rate,[6]; single application of Oust at 0.07 pounds ai/A,less than 1%
same,Visual injury,[4]; all rates of Oust,100%
same,Tolerance of mutant ALS compared to susceptible control (in words),"[1]; Oust, FIG. 1e","more tolerant than the susceptible control for Oust herbicide (sulfometuron methyl) (FIG. 1e), although the difference was not significant"
same,Tolerance of CL161 rice compared to susceptible variety CCDR (in words),"[2]; 100 μM of Oust, FIG. 1f",significantly greater tolerance
same,Pre-emergence and/or post-emergence resistance to herbicide,[3],Resistance has been demonstrated
same,Resistance of the clone with mutations at both Pro197 and Trp574,[3],strong resistance
"CC(C)C1(C)N=C(c2ncccc2C(=O)O)NC1=O (centres unmarked) [Arsenal, 2-[4,5-dihydro-4-methyl-4-(1-methylethyl)-5-oxo-1H-imidazol-2-yl]-3-pyridinecarboxylic acid]",% height reduction compared to no spray control,[7]; [9],80%
same,Plant height (cm),[7]; [9],11.0 cm
same,Injury rating,"[7]; scale 0 = no injury, 10 = dead plant",3.5
same,Plant height compared to the unsprayed resistant controls (in words),[8],not affected
same,% height reduction compared to no spray control,[8]; [10],0%
same,Plant height (cm),[8]; [10],9.2 cm
same,Injury rating,"[8]; scale 0 = no injury, 10 = dead plant, SM 8 oz. a.i./A, IM 2 oz. a.i./A",0.7
same,Tolerance of mutant ALS enzyme compared to susceptible variety,"[1]; Arsenal at 10 to 100 μM, FIG. 1a",~2.5 fold
same,Tolerance of CL161 rice enzyme compared to control,"[2]; Arsenal at 10 μM, FIG. 1b",< 2 fold
same,Pre-emergence and/or post-emergence resistance to herbicide,[3],Resistance has been demonstrated
same,Resistance of the clone with mutations at both Pro197 and Trp574,[3],strong resistance
